Results from ChEMBL document CHEMBL5303304, “EUbOPEN Chemogenomics Library - IncuCyte” (2023).

How the values were obtained:
Format in all cases: toxicity, cell-based
[1] = tested on: HEK-293T; assay: Incucyte cell viability with HEK293T; conditions: human, 10 µM, compound concentration 10 uM
[2] = tested on: U2OS; assay: Incucyte cell viability with U2OS; conditions: human, 10 µM, compound concentration 10 uM
[3] = tested on: Fibroblast; assay: Incucyte cell viability with human fibroblast; conditions: 10 µM, compound concentration 10 uM
Note: unitless GR value; below 1 slowed growth and below 0 cell loss.

Structure (SMILES)	Growth Rate ([1]; 0 h, replicate number 1)	Growth Rate ([1]; 0 h, replicate number 2)	Growth Rate ([1]; 24 h, replicate number 2)	Growth Rate ([2]; 0 h, replicate number 2)	Growth Rate ([2]; 24 h, replicate number 1)	Growth Rate ([3]; 0 h, replicate number 2)	Growth Rate ([1]; 18 h, replicate number 1)	Growth Rate ([1]; 18 h, replicate number 2)	Growth Rate ([1]; 24 h, replicate number 1)	Growth Rate ([3]; 6 h, replicate number 2)	Growth Rate ([3]; 12 h, replicate number 1)	Growth Rate ([3]; 12 h, replicate number 2)	Growth Rate ([3]; 18 h, replicate number 2)	Growth Rate ([3]; 24 h, replicate number 2)	Growth Rate ([1]; 6 h, replicate number 2)	Growth Rate ([2]; 6 h, replicate number 1)	Growth Rate ([2]; 6 h, replicate number 2)	Growth Rate ([2]; 12 h, replicate number 2)	Growth Rate ([2]; 18 h, replicate number 2)	Growth Rate ([2]; 24 h, replicate number 2)	further results
COc1cc(N2CCN(C)CC2)ccc1Nc1nccc(-c2cn(C)c3cnccc23)n1	-0.65	-0.69	0.8	-0.71	0.75	0.04	–	–	–	–	–	–	–	–	–	–	–	–	–	–	Growth Rate ([3]; 6 h, replicate number 1): -1
CN[C@@H](C)C(=O)N[C@H]1CN(C(=O)CC(C)C)CC[C@H]2CC[C@@H](C(=O)NC(c3ccccc3)c3ccccc3)N2C1=O [XEVINAPANT]	0.08	–	–	0.1	–	0.68	0.71	0.97	0.92	0.35	0.68	0.73	0.78	0.88	–	–	–	–	–	–	Growth Rate ([1]; 6 h, replicate number 1): 0.36; Growth Rate ([1]; 12 h, replicate number 1): 0.86; Growth Rate ([3]; 6 h, replicate number 1): -0.46; Growth Rate ([3]; 24 h, replicate number 1): 0.9
CCN(CC)C/C=C/C(=O)Nc1cc2c(Nc3ccc(F)c(Cl)c3)ncnc2cc1OCC1CC1	–	–	-0.29	–	-0.24	-0.83	-0.32	-0.35	-0.25	-0.01	0	-0.26	-0.4	-0.46	-0.45	0.31	0.36	0.08	0.06	-0.01	Growth Rate ([1]; 6 h, replicate number 1): -0.54; Growth Rate ([1]; 12 h, replicate number 1): -0.39; Growth Rate ([1]; 12 h, replicate number 2): -0.32; Growth Rate ([2]; 0 h, replicate number 1): -0.62; Growth Rate ([2]; 12 h, replicate number 1): -0.19; Growth Rate ([2]; 18 h, replicate number 1): -0.19; Growth Rate ([3]; 6 h, replicate number 1): 0.22; Growth Rate ([3]; 18 h, replicate number 1): -0.12; Growth Rate ([3]; 24 h, replicate number 1): -0.22
Cc1ccc(S(=O)(=O)O)cc1.Cn1cc(Nc2nccc(N3CC4CCC(C3)N4C(=O)[C@@H]3CC3(F)F)n2)cn1	0.13	–	–	0.58	–	0.55	–	0.98	–	0.12	0.8	0.69	0.88	–	0.93	0.03	0.95	0.96	0.84	0.8	Growth Rate ([2]; 12 h, replicate number 1): -0.28; Growth Rate ([3]; 0 h, replicate number 1): 0.69; Growth Rate ([3]; 6 h, replicate number 1): 0.01; Growth Rate ([3]; 18 h, replicate number 1): 0.4; Growth Rate ([3]; 24 h, replicate number 1): 1
Cc1cc(C(C#N)c2ccc(Cl)cc2)c(Cl)cc1NC(=O)c1cc(I)cc(I)c1O (stereo unspecified) [CLOSANTEL]	0.61	0.76	0.91	-1	0.98	-0.74	0.5	0.87	0.89	–	-1	–	–	–	0.49	–	0.91	0.94	0.87	0.99	Growth Rate ([1]; 6 h, replicate number 1): 0.13; Growth Rate ([1]; 12 h, replicate number 1): 0.27; Growth Rate ([1]; 12 h, replicate number 2): 0.84; Growth Rate ([2]; 0 h, replicate number 1): 0.36
Cn1c(C2(NC(=O)c3ccc4c(C5CCCC5)c(-c5ncc(Br)cn5)n(C)c4c3)CCC2)nc2ccc(/C=C/C(=O)[O-])cc21.[Na+] [DELEOBUVIR SODIUM]	0.69	0.32	0.8	–	–	-0.22	0.92	0.81	0.94	-0.13	–	–	–	–	–	–	–	0.79	0.92	0.93	–
CCOC(=O)C1Cc2ccccc2CN1C(=O)c1ccc(SC)s1 (stereo unspecified)	–	-0.82	0.5	–	–	–	0.47	0.5	0.41	0.06	0.66	0.1	0.63	0.67	0.28	0.96	0.87	–	0.98	0.88	Growth Rate ([1]; 6 h, replicate number 1): 0.05; Growth Rate ([1]; 12 h, replicate number 1): 0.12; Growth Rate ([1]; 12 h, replicate number 2): 0.49; Growth Rate ([3]; 18 h, replicate number 1): 0.58; Growth Rate ([3]; 24 h, replicate number 1): 0.86
Cc1cc(CN(CC(=O)Nc2ccc(Cl)cc2Cl)C2CCCCC2)ccc1OCC(=O)O	0.78	0.19	–	–	–	-0.93	–	–	–	0.35	–	0.9	0.88	0.87	–	0.64	–	0.97	–	–	–
CCN(C(=O)CO)[C@H]1CN(/C(=N\C#N)Nc2cccc(OC(F)F)c2)N=C1c1ccc(Cl)c(Cl)c1	–	-0.6	–	–	-0.49	0.47	0.96	–	0.91	0.31	–	0.8	–	0.98	0.79	1	–	–	–	–	Growth Rate ([2]; 18 h, replicate number 1): -0.52
CCNC1=N[C@@H]2[C@@H](O)[C@H](O)[C@@H](CO)O[C@@H]2S1	-0.01	-0.15	0.89	0.47	0.95	–	0.78	–	0.86	0.18	0.91	0.76	0.8	0.99	0.53	0.53	0.45	0.79	0.81	0.74	Growth Rate ([1]; 12 h, replicate number 2): 0.93; Growth Rate ([2]; 0 h, replicate number 1): -0.37; Growth Rate ([2]; 12 h, replicate number 1): 0.86; Growth Rate ([2]; 18 h, replicate number 1): 0.91; Growth Rate ([3]; 18 h, replicate number 1): 0.83; Growth Rate ([3]; 24 h, replicate number 1): 0.92
COc1cc(-c2cn[nH]c2)ccc1C(=O)Nc1ccc2c(c1)CCNCC2.Cl	-0.67	–	–	–	0.87	0.05	–	–	–	–	–	–	–	–	–	–	0.77	0.78	0.59	0.63	Growth Rate ([2]; 12 h, replicate number 1): 0.82; Growth Rate ([2]; 18 h, replicate number 1): 0.75; Growth Rate ([3]; 0 h, replicate number 1): 0.68
